Assay results as given in patent US10093642B2, “Multitarget hedgehog pathway inhibitors and uses thereof” (UNIVERSITA' DEGLI STUDI DI SIENA, priority 2013, dated 2018).

Tests used:
[1] = test system: cerebellar granule progenitor cells (GCPs); experiment: BrdU incorporation in Shh-treated cerebellar granule cell progenitors; format: cell-based, mouse; details: Shh 3 μg/ml, 48 h
Protocol: FIG. 10. Cerebellar granule progenitor cells (GCPs) were treated with Shh (Recombinant mouse Sonic Hedgehog, amino-terminal peptide, 3 μg/ml) and with different concentrations of Glabrescione B, as indicated, for 48 h. Inhibition of cell proliferation was measured as percentage of BrdU incorporation in comparison to DMSO (0.5%, vehicle) treated sample.
A biological assay was performed in cerebellar neural progenitors cells obtained from 4-days-old mice, when they are actively proliferating under Sonic Hedgehog (Shh) stimulus. As expected, treatment of these cells with Shh increased the proliferation rate, as evaluated by BrdU-incorporation assay. […] To further evaluate the antiproliferative effect of Glabrescione B, human MB cell lines D283 were treated with Glabrescione B at different concentrations. […] The biomolecule was active, as shown by the growth rate inhibition (70-95%).
Another experiment to assess whether Glabrescione B also regulates Hh pathway in a physiological context was carried out in cerebellar granule cells precursors (GCPs) isolated from 4-days-old mice according to established protocols (Wechsler-Reya and Scott, 1999). Briefly, cerebella were removed aseptically, cut into small pieces, and incubated at room temperature for 15 min in digestion buffer [Dulbecco's PBS (Invitrogen, Gaithersburg, Md.) with 0.1% trypsin, 0.2% EDTA, and 100 μg/ml DNase]. […]

MEF-Ptch−/− cells = experiment: Gli1 mRNA (quantitative RT-PCR) and protein (western blot) in MEF-Ptch−/− cells; format: cell-based, mouse; details: different concentrations, 48 h
Protocol: FIG. 8. […] (A) Gli1 mRNA levels were determined by quantitative RT-PCR, normalizing to HPRT (Hypoxanthine-guanine phosphoribosyl transferase) expression. Error bars indicate SD.
To analyze the antagonist properties of Glabrescione B under more physiological conditions, the inventors used MEF-Ptch^−/− cells, embryo fibroblasts derived from Ptch^−/− mouse, in which the activation of Hh signaling is consequence of Ptch1 deletion. Since Patched acts as upstream repressor of SMO, inhibition of the Hedgehog pathway from Patched is prevented and the Hedgehog pathway is constitutively activated in this cell lines, which turned out to be a reliable cellular model for studying the effect of Hedgehog inhibitors. […]
In order to determine whether Glabrescione B regulates cells with a constitutive Hh pathway activation, the MEF-Ptch^−/− cell line (a kind gift by M. Scott, Stanford University, CA, in which the activation of Hh signaling is consequence of Ptch1 deletion, Goodrich, L. V. et al, 1997) was treated with Glabrescione B at different concentrations and the effect on expression of Hh/Gli1 pathway was determined by quantitative RT-PCR and western blot analysis. […] Quantitative PCR (QPCR) analysis of Gli1 mRNA expression was performed on each cDNA sample using the ABI Prism 7900 Sequence Detection System employing Assay-on-Demand Reagents (Life Technologies). […]

[2] = NMR monitoring of direct interaction with Zn2+; format: binding
SMO receptor = molecular target: T1, SMO receptor (UniProt P56726); experiment: Displacement assay with Bodipy-cyclopamine in HEK293 cells transfected with SMO; details: BC 5 nM, 2 h at 37° C., read-out: IC50 of blocking Bodipy-cyclopamine (BC) binding to SMO
T1 construct: fused on or other part: Possibly a C-terminal Myc3 tag, if the construct is Smo-Myc3 of Chen et al. 2002
Protocol: (A) HEK293 cells were transiently transfected with pcDNA-SMO vector and incubated with Bodipy-cyclopamine (BC 5 nM) alone (control) or in the presence of increasing concentrations of KAAD (Cyclopamine-KAAD, Smoothened antagonist) or increasing concentrations of Glabrescione B, as indicated. Bodipy-cyclopamine binding (BC binding) (green) is visualized using fluorescence microscopy in a representative field. (B) The concentration-response curve for Glabrescione B was obtained by quantification of the Bodipy-cyclopamine fluorescence in three photographs for each coverslip. The values are expressed as a percentage of the fluorescence detected in control HEK293 cells incubated with Bodipy-cyclopamine alone. The data shown are the means of triplicates derived from a representative experiment of three. Error bars indicate SD (standard deviation). […]
To investigate the binding properties of Glabrescione B to SMO receptor, a competition assay was carried out. In this experiment it was analyzed whether Glabrescione B could compete with Bodipy-cyclopamine (BC; 5 nM USBiological, cat. # B2527), a fluorescent derivative of cyclopamine, which is known to interact with the SMO receptor at the level of its heptahelical bundle. […] Cells were analyzed with a Carl Zeiss microscope (Axio Observer ZI). […] Bodipy-cyclopamine (green) and DAPI (blue) signals were analyzed in 3-4 representative fields for coverslips.

Jun/AP1activation = experiment: Selectivity: unrelated signal transduction pathway Jun/AP1 activation; format: cell-based

In the case of COc1cc(OC)c2c(=O)c(-c3ccc(OCC=C(C)C)c(OCC=C(C)C)c3)coc2c1 [Glabrescione B, 3-(3′,4′-bis(3-methylbut-2-enyloxy)phenyl)-5,7-dimethoxy-4H-chromen-4-one], the “Shh-induced proliferation (BrdU incorporation)” value [1] is reported as “antagonized this effect”, the “Gli1 mRNA and protein levels” value (MEF-Ptch−/− cells) is reported as “strongly reduced mRNA and protein levels of Gli1” and the “binding to Zn2+ (NMR)” value [2] is reported as “not capable of binding to the metal ions”. It also gave an IC50 (SMO receptor) of 1000 nM and an inhibition at 30 µM (Jun/AP1activation) of 0%.
